Assay results reported in paper PMC12419465, “Photoresponsive molecular tweezers modulate Taspase 1 activity” (RSC Chemical Biology, 2025).
Read-outs that look alike come from different tables or passages of the source.

Tests used:
[1] = target: T1, full-length, proteolytically inactive Taspase 1 (Homo sapiens, UniProt Q9H6P5, D233A/T234A); test: Surface plasmon resonance on immobilized full-length, inactive Taspase 1; assay type: binding; conditions: for ka / kd: Table S3, n = 2
T1 sequence (Q9H6P5 1-420 D233A/T234A): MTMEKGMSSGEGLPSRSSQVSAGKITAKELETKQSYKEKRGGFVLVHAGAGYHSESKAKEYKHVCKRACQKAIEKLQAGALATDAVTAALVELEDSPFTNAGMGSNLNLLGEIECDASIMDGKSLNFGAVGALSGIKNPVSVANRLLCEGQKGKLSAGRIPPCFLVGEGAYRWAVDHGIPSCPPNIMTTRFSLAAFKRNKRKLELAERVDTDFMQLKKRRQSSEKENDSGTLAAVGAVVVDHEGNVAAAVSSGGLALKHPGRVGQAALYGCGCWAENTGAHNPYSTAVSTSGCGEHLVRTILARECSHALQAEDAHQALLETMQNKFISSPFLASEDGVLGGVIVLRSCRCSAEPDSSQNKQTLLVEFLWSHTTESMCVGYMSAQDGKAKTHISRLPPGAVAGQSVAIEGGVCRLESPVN
Description: SPR measurements were conducted as described.[9,10]
First, we utilized an established surface plasmon resonance (SPR) assay to evaluate the overall binding of our ligands to Taspase 1 (Fig. 3).[10,54] […] High affinities were observed, with KD values in the single micromolar range (Fig. 3, and Table S2).
Fig. 3 Photoswitchable tweezer constructs bind Taspase 1 with SPR binding affinities in the low micromolar range. […] Duplicate measurements were performed, with the respective curves shown in the same colour at different brightness levels (right). […] KD values (Table S2) were determined through kinetic evaluation by fitting the individual curves to a 1 : 1 binding model. Detailed SPR data are provided in the SI (Table S3). Composed with https://BioRender.com. […] No printed text gives the condition. In each entry the first value is the upper row and the second is the lower row.
Supplementary Table S3. Kinetic parameters of photoswitchable tweezer constructs as determined by SPR (see Fig. 3). Values were derived from fitted sensorgrams with a 1:1 two state binding model from n = 2 measurements for the indicated constructs. Analysis was performed using the Trace Drawer software 1.9.2 (TraceDrawer Software, Sweden). […]

[2] = Photoisomerization: photostationary states by 1H NMR, switching cycles by UV-vis; assay type: physicochemical; conditions: for PSS E→Z, photostationary state: UV 365 nm; for PSS Z→E, photostationary state: green light 520 nm
Description: Tweezer constructs were synthesized as an E/Z mixture, with a strong preference for the thermodynamically stable E isomer. For photoisomerization, UV-vis spectra of TWAAP and TWAB (50 μM in water) were recorded in their initial state. The constructs were then isomerized to the Z isomer with UV light (λ = 365 nm, 1 min) and back to the E isomer with green light (λ = 520 nm, 5 min). Two light sources were used: UV LED HighPower-LED with 3 W of λ = 365 nm (LED Engin Inc., San Jose, California, US) and a LSC-G HighPower-LED with 3 W of λ = 520 nm (Cree Inc., Durham, North Carolina, US). UV-vis spectroscopy was routinely employed to analyze the tweezer constructs, serving as the method of choice to monitor configurational integrity after multiple switching cycles. More than 10 switching cycles were performed without any loss of configurational integrity. The UV-vis spectra were recorded with a JASCO V-650 double-beam spectrophotometer (JASCO).
The photophysical properties of AAP tweezers TWAAP0-4 as well as those of AZO tweezers TWAB1-2 were consistent with previous reports on these photoswitches. […] The two isomers are easily distinguished by the significant difference in their absorption bands (Fig. 2 and Fig. S4a, b). […] Irradiation with green light further increases the concentration of the E isomer, as confirmed by both UV/vis and NMR spectra. The switching process can be repeated for over 10 cycles without loss of configurational integrity or photodegradation of the tweezer. […] (Fig. 2 and Table S1).
Supplementary Table S1. Photostationary states (PSSE→Z and PSSZ→E) and half-life of Z isomers of
respectively. n.d., not determinable.
TW construct PSSE→Z [%] PSSZ→E [%] […]

[3] = E enriched isomer, Table S2, read-out: KD (E)
[4] = Z enriched isomer, Table S2, read-out: KD (Z)
[5] = Z isomer, ligand conc. 0.06 - 25 µM, Table S4, read-out: KD TW (SPR, full-length protein)
[6] = E isomer, ligand conc. 0.06 - 25 µM, Table S4, read-out: KD TW (SPR, full-length protein)

| Structure (SMILES) | Kd [1, 3] [µM] | Kd [1, 4] [µM] | Kd [1, 5] [µM] | ka ([1]; isomer E) [M⁻¹ s⁻¹] | kd ([1]; isomer E) [s⁻¹] | ka ([1]; isomer Z) [M⁻¹ s⁻¹] | kd ([1]; isomer Z) [s⁻¹] | PSS E→Z, photostationary state [2] [%] | PSS Z→E, photostationary state [2] [%] | Kd [1, 6] [µM] | SPR signal ([1]; E isomer) | association rate constant (ka) ([1]; E isomer) | dissociation rate constant (kd) ([1]; E isomer) | SPR signal ([1]; Z isomer) | association rate constant (ka) ([1]; Z isomer) | dissociation rate constant (kd) ([1]; Z isomer) |
| --- | --- | --- | --- | --- | --- | --- | --- | --- | --- | --- | --- | --- | --- | --- | --- | --- |
| Cc1nn(-c2ccc(C#Cc3ccc(-c4cn(CCOP(=O)(O)Oc5c6c(c(OP(=O)(O)O)c7c5C5CC7c7cc8c(cc75)C5CC8c7ccccc75)C5CC6c6cc7c(cc65)C5CC7c6ccccc65)nn4)cc3)cc2)c(C)c1N=Nc1ccc(C#Cc2ccc(-c3cn(CCOP(=O)(O)Oc4c5c(c(OP(=O)(O)O)c6c4C4CC6c6cc7c(cc64)C4CC7c6ccccc64)C4CC5c5cc6c(cc54)C4CC6c5ccccc54)nn3)cc2)cc1 [TWAAP4] | 2.9 | 1.96 | 2 | 4690 ± 1260 | 0.00918 ± 4.22e-06 | 3340 ± 688 | 0.00967 ± 4.04e-06 | 67 | 97 |  |  |  |  |  |  |  |
| O=P(O)(O)Oc1c2c(c(OP(=O)(O)OCCn3cc(-c4ccc(N=Nc5ccc(-c6cn(CCOP(=O)(O)Oc7c8c(c(OP(=O)(O)O)c9c7C7CC9c9cc%10c(cc97)C7CC%10c9ccccc97)C7CC8c8cc9c(cc87)C7CC9c8ccccc87)nn6)cc5)cc4)nn3)c3c1C1CC3c3cc4c(cc31)C1CC4c3ccccc31)C1CC2c2cc3c(cc21)C1CC3c2ccccc21 [TWAB1] | 9.32 | 9.2 |  | 596 ± 116 | 0.000548 ± 2.4e-05 |  |  | 63 | 61 | 9.3 |  |  |  |  |  |  |
| Cc1nn(-c2ccc(-n3cc(CCOP(=O)(O)Oc4c5c(c(OP(=O)(O)O)c6c4C4CC6c6cc7c(cc64)C4CC7c6ccccc64)C4CC5c5cc6c(cc54)C4CC6c5ccccc54)nn3)cc2)c(C)c1N=Nc1ccc(-n2cc(CCOP(=O)(O)Oc3c4c(c(OP(=O)(O)O)c5c3C3CC5c5cc6c(cc53)C3CC6c5ccccc53)C3CC4c4cc5c(cc43)C3CC5c4ccccc43)nn2)cc1 [TWAAP0] | 0.71 | 2.87 | 2.9 | 1120 ± 34 | 0.00322 ± 7.17e-07 | 1040 ± 20.5 |  | 87 | 89 | 0.7 | approximately 300 μRIU | 1.04 × 10^3 M^1 s^1 | 0.000743 s⁻¹ | approximately 300 μRIU | 1.12 × 10^3 M^1 s^1 | 0.00322 s⁻¹ |
| Cc1nn(Cc2cn(CCOP(=O)(O)Oc3c4c(c(OP(=O)(O)O)c5c3C3CC5c5cc6c(cc53)C3CC6c5ccccc53)C3CC4c4cc5c(cc43)C3CC5c4ccccc43)nn2)c(C)c1N=Nc1ccc(-c2cn(CCOP(=O)(O)Oc3c4c(c(OP(=O)(O)O)c5c3C3CC5c5cc6c(cc53)C3CC6c5ccccc53)C3CC4c4cc5c(cc43)C3CC5c4ccccc43)nn2)cc1 [TWAAP2] | 5.67 | 4.28 | 4.3 | 1170 ± 96.4 | 0.00501 ± 9.88e-07 | 750 ± 76.2 | 0.00426 ± 1.03e-06 | 94 | 77 | 5.7 |  |  |  |  |  |  |
| Cc1nn(-c2ccc(-c3cn(CCOP(=O)(O)Oc4c5c(c(OP(=O)(O)O)c6c4C4CC6c6cc7c(cc64)C4CC7c6ccccc64)C4CC5c5cc6c(cc54)C4CC6c5ccccc54)nn3)cc2)c(C)c1N=Nc1ccc(-c2ccc(-c3cn(CCOP(=O)(O)Oc4c5c(c(OP(=O)(O)O)c6c4C4CC6c6cc7c(cc64)C4CC7c6ccccc64)C4CC5c5cc6c(cc54)C4CC6c5ccccc54)nn3)cc2)cc1 [TWAAP3] | 4.05 | 2.67 | 2.7 | 957 ± 56.1 | 0.00256 ± 4.04e-06 | 3810 ± 2090 | 0.0153 ± 2.5e-05 | 84 | 92 | 4.1 | approximately 120 μRIU | 3.81 × 10^3 M^1 s^1 | 1.53 × 10^−2 s^1 | about 500 μRIU | 9.57 × 10^2 M^1 s^1 | 2.56 × 10^−3 s^1 |
